Source: patent US20240174625A1, “COMPOSITIONS AND METHODS FOR TREATING TAUOPATHIES” (The Regents of the University of California, priority 2021, published 2024)
“Also recorded” adds a separate entry of the source.

Key:
[1] = In vivo plasma pharmacokinetics; set-up: species or system mouse; conditions: mice; for Cmax (maximum plasma concentration observed) / plasma PK parameters / half life: 20 mg/kg i.p., compared to JMM001
Text: Adult hTau^P301S homozygous mice (Tg2541Godt mice, a transgenic mouse model of tauopathy carrying a human Tau^P301S mutation^19 and wild-type (WT) littermates on a C57BL/6J background of both genders were used in the in vivo efficacy on Tau histopathology experiments. hTauP301S homozygous mice were obtained as gifts from Dr. Michel Goedert at MRC Laboratory of Molecular Biology, Cambridge, UK and Dr. Stanley Prusiner at UCSF, USA, and were re-derived onto a pure C57BL/6J genetic background by Dr. Prusiner's lab. Mice were periodically outcrossed with WT C57BL/6J mice (Strain #000664) from Jackson Laboratory (Bar Harbor, ME) to maintain genetic diversity. Animals were group-housed in a temperature-controlled facility (73±2° F., 45% humidity, regular 12-hour light/dark cycle, lights on at 7 AM), with food and water ad libitum. All experimental procedures were approved by the ARC administrative office at the University of California Los Angeles (UCLA) and the UCLA institutional animal care and use committee (IACUC) and followed the USDA Animal Welfare Act Regulations, the Public Health Service (PHS) Policy on Humane Care and Use of Laboratory Animals, and the Guide for the Care and Use of Laboratory Animals. Adult male WT mice on a C57BL/6J background (Strain #000664), purchased from Jackson Laboratory (Bar Harbor, ME), were used in the in vivo pharmacokinetics and blood-brain barrier penetration studies. Animals were randomly assigned to experimental groups and tested by experimenters blinded to experimental conditions.
In vivo pharmacokinetics and blood-brain barrier penetration studies are conducted at UCSD-DMPK core following their standard of operation protocols. Briefly, freshly prepared JMM compounds (e.g., JMM001, JMM013, JMM015, JMM052, JMM067, and JMM086) formulated in a vehicle (1:1:1:7 DMSO: Cremophor: Ethanol: Saline) were administered to C57BL/6J mice at 20 mg/kg systemically (i.p., i.v., or p.o.) at various time points (0, 0.5, 1, 2, 4, 8, and 24 hrs post-injection) with five mice per group. Plasma samples were collected, and compound plasma levels were measured using LC/MS. […] Brain samples are then processed following and compound concentrations in the brain sample were measured via LC/MS. Compound brain levels are normalized to the mass of brain in a unit of ng/mg.

α-synuclein = assay: alpha-synuclein protein level in human primary cortical neurons; format: cell-based; conditions: 50 μM, 48 hrs
Protocol: FIG. 11. Potential applications of NPEPPS enhancer JMM series on other neurodegenerative diseases. JMM001 (Cp 1) at 50 μM reduces protein levels of huntingtin (htt), SOD1, ataxin, and alpha-synuclein in human primary cortical neurons. Neurons were treated with 50 μM JMM001 or 10 uM bestatin for 48 hrs. N=3-4±SEM.

NPEPPS = biological target: T1, NPEPPS (Homo sapiens, UniProt P55786); assay: Cell-based NPEPPS activity assay (Q-AMC fluorescence); conditions: log10 transformed; EC50 = concentration that elevates 50% NPEPPS activity (150% of DMSO baseline); HEK293T cells
T1 construct: endogenous in cells; host or cells: HEK293T
T1 sequence (P55786 whole entry): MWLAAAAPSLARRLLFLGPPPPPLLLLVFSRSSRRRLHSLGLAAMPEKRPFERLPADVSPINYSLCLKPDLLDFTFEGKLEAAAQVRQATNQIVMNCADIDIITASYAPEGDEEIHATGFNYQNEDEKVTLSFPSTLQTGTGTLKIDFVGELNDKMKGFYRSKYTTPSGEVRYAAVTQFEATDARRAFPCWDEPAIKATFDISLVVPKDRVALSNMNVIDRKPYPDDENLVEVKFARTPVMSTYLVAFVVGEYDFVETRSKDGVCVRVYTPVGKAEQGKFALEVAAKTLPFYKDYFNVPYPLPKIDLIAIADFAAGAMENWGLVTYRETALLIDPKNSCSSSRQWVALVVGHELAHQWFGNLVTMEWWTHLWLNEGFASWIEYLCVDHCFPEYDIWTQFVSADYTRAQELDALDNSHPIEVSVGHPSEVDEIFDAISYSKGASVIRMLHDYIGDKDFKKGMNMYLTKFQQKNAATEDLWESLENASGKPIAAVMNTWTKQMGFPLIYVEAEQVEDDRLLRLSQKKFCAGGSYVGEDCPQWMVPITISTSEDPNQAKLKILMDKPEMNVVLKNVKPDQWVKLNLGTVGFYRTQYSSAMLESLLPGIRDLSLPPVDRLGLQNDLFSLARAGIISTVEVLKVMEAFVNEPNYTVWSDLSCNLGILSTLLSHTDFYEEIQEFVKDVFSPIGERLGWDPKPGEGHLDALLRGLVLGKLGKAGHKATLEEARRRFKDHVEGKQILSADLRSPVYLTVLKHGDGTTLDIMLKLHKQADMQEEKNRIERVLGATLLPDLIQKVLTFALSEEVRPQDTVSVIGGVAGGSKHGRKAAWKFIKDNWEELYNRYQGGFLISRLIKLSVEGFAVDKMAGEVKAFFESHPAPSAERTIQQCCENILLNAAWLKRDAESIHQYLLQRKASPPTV
Procedure, shortened: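 HEK293T cells (16,500/well) on poly-L-ornithine in minimal medium with compounds in 20-step 2-fold dilution for 24 h, then H-Gln-AMC added (30 μl of 200 μM). Fluorescence (ex/em 360/460 nm) read at addition and 3 h later; change in fluorescence taken as NPEPPS activity, giving EC50 versus DMSO control.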

| oral bioavailability ([1]; 20 mg/kg i.v. or p.o.) | EC50 (NPEPPS) [µM] | Cmax (maximum plasma concentration observed) [1] | plasma PK parameters [1] | half life ([1]; 20 mg/kg) | half life [1] | Compound | protein level of α-synuclein (α-synuclein) |
| --- | --- | --- | --- | --- | --- | --- | --- |
| high | 15.8 | – | – | – | – | COc1ccc(CNc2nsc3ccccc23)cc1OC [JMM001] | reduces |
| – | 0.708 | increasing | improved | improved; also recorded: increasing | – | c1ccc(COc2ccc(CNc3nsc4ccc(OCc5ccccc5)cc34)cc2)cc1 [JMM083] | – |
| – | 17 | increasing | improved | improved; also recorded: increasing | – | c1ccc2c(c1)-c1ccccc1C2Nc1nsc2ccccc12 [JMM052] | – |
| – | 8.13 | increasing | improved | improved; also recorded: increasing | – | CN(Cc1ccc(C(F)(F)F)cc1)c1nsc2ccccc12 [JMM067] | – |
| – | 15.1 | – | improved | – | improved | c1ccc2c(CNc3nsc4ccccc34)cccc2c1 [JMM013] | – |
